Where “and” joins values, the source holds several entries; their conditions need not be identical. Identical values can stand only once.
Experiments:
[1] = Metabolic stability assay in human liver microsomes; assay type: in vitro ADME; conditions: for half-life: pH 7.4, 1 mg/mL protein; for Clearance Category: ranked by CLint
Description: Pretreatment of the 96-well ABgen-0765 reaction plates was the same as previously described above. Two microlitres (2 µL) of compounds (previously dissolved in DMSO) were pre-incubated with 98 µL of cofactor/buffer solution (0.1 M phosphate buffer of pH 7.4, 100 mM K3PO4, 3.3 mM MgCl2, 3.3 mM G6P, 1.3 mM NADPH, and 0.4 u/mL G6PDH) at 37 °C for 10 min. The reactions were then initiated by the addition of 100 µL of HLM solution (at final protein concentration of 1 mg/mL), after which they were stopped at pre-determined incubation times of 0, 10, 15, 30, 45 and 60 min by adding 90 µL acetonitrile containing internal LC–MS–MS standards and shaking at 180 Hz. The samples were centrifuged to sediment the protein precipitates and the supernatants were analysed by LC–MS–MS as previously described above. The integration of each analyte (the […]) and internal standard peak area was performed by the Analyst® software version 1.5.2 and used to calculate the percentage of remaining compound at each incubation time. The natural logarithm of the percentage of the remaining parent compound was plotted against the incubation time and used to calculate the half-life by the following equation:
Half-life (T ½ min) = 0.693/k, where k is the slope of a plot of the natural log of the percentage parent compound remaining vs. time.
The intrinsic clearance (CLint) was determined by the equation: CLint
=Ln2/t1/2min∗volumeincubationmL/microsomalproteinmg∗45MPPGL1500ghumanliver/70kghumanbodyweightj
Units for CLint were expressed as mL/min/mg microsomal protein and MPPGL = mg microsomal protein per gram liver.

mice = assay: In vivo toxicity in mice after i.v. injection; conditions: mouse, in vivo, iv, 25 mg/kg
Description: Three Balb/C mice (6–8 weeks old) were intravenously injected with 25 mg/kg of strasseriolide D dissolved in 200 µL of vehicle (0.5%HPMC, 0.5% Tween 80 and 0.5% Benzyl alcohol in water). Blood samples were collected by pricking the […] on the leg of each mouse at time points 1.5 (T 1.5 h), 5 (T 5 h) and 24 h (T 24 h). From the harvested blood, 50 µL plasma were prepared for all the samples and stored at -80 °C until needed. A previously developed LC–MS–MS method (see supporting information) was used to determine the plasma concentration of strasseriolide D as described below.
Similar sample preparation and LC–MS–MS analysis were respectively performed for mice intravenously injected with strasseriolides A and C as test compounds and mice blood samples collected at 30 min (T 30 M), 2 h (T 2 h), 6 h (T 6 h) and 24 h (T 24 h). […] For strasseriolides A, B and C as test compounds; strasseriolides C, D and B were respectively used as internal standards. After LC–MS–MS analysis, the plasma concentration of compound vs. time data was determined for each strasseriolide.
Animals were observed individually at 15, 30 and 60 min after dosing and periodically during the first 24 h for any clinical signs of toxicity or mortality. The toxicity evaluation was carried out by observing behaviour parameters, including the Grimace scale parameters. The mice were sacrificed, and the main organs were examined by visual inspection during autopsy.

[2] = test system: transgenic P. berghei line 676m1cl1 (PbGFP-Luccon), ANKA strain; assay: In vivo efficacy in P. berghei infected mice (luciferase activity); set-up: species or system Plasmodium berghei in Swiss Webster female mice; conditions: for Parasitaemia (Luminescence arbitrary units), Average ± SD: 4 days from 48 h post-infection; for in vivo activity (in words): strasseriolide D 22 mg/kg i.p. (p < 0.01 vs. vehicle), strasseriolide C 50 mg/kg i.p. (not statistically significant); for parasitaemia level lower compared to controls treated with vehicle: strasseriolide D 22 mg/kg i.p., strasseriolide C 50 mg/kg i.p., 4 days
Description: In vivo efficacy experiments were performed at the Anti-infectives Screening Core Services facility of the New York University School of Medicine. The transgenic P. berghei line 676m1cl1 parasite (PbGFP-Luccon) expressing the fusion GFP (mutant 3) and firefly luciferase (LucIAV) proteins generated in the reference clone of ANKA strain cl15cy1 was used. Swiss Webster female mice were infected with transgenic P. berghei line 676m1cl1 (PbGFP-Luccon) ANKA-infected 10³ red blood cells. Treatment was then started 48 h post-parasite infection by i.p. dosage of 22 mg/kg of strasseriolide D and 50 mg/kg of strasseriolide C. Vehicle only (PBS 2% methylcellulose, 0.5% Tween 80) and 20 mg/kg chloroquine were used as negative and positive controls. The infected mice were treated for four days, after which luciferase activity of the parasites was quantified 5 to 10 min after i.p. injection of 150 mg/kg D-Luciferin Potassium-salt (Goldbio) dissolved in PBS using an IVIS® Lumina II imager on the fifth day.
The Genedata Screener online application (Genedata AG, Basel, Switzerland) was used to compute IC50 values. The Smart Fit strategy with Hill model was selected as the choice for curve fitting. Where applicable, data are presented as mean ± standard deviation (SD). In Fig. 3, the significant differences between the vehicle controls and test compounds were calculated by the Student’s t test.

[3] = test system: Plasmodium falciparum strain 3D7 whole parasites; set-up: method as in PMID 32808790; conditions: in vitro, read-out: IC50 against Plasmodium falciparum strain 3D7; cited from earlier work

Row | Compound | half-life [1] [min] | Clearance Category [1] | in vivo toxicity / mortality in mice (mice; Balb/C, 24 h) | in vivo toxicity / mortality in mice (mice) | Parasitaemia (Luminescence arbitrary units), Average ± SD ([2]; Table S7/Fig. 3A experiment: strasseriolide C 50 mg/kg i.p., chloroquine 20 mg/kg, read day 5, four replicates) | in vivo activity (in words) [2] | parasitaemia level lower compared to controls treated with vehicle [2] [%] | IC50 [3] [nM] | Parasitaemia (Luminescence arbitrary units), Average ± SD ([2]; Table S8/Fig. 3B experiment: strasseriolide D 22 mg/kg i.p., chloroquine 20 mg/kg, read day 5, five replicates) | Parasitaemia (Luminescence arbitrary units), single replicates ([2]; Table S8 experiment: strasseriolide D 22 mg/kg i.p., chloroquine 20 mg/kg, individual mice)
1 | C/C1=C\[C@H](C)C(=O)C[C@@H](O)/C(C)=C/[C@H](C)C[C@@H](C)CC[C@@H]([C@@H](C)C(=O)O)OC(=O)[C@@H](C)C1 [Strasseriolide C, strasseriolide C] | 15.9 ± 1.15 | Medium | survived until 24 h post-i.v. injection | non-toxic | 3.66 × 10^6 ± 2.23 × 10^6 Luminescence arbitrary units | moderate in vivo activity | 30 | 123 | – | –
2 | C/C1=C\[C@H](C)[C@@H](O)C[C@@H](O)/C(C)=C/[C@H](C)C[C@@H](C)CC[C@@H]([C@@H](C)C(=O)O)OC(=O)[C@@H](C)C1 [Strasseriolide D, strasseriolide D] | > 60 | Low | survived until 24 h post-i.v. injection | non-toxic | – | significantly lowered parasitaemia in vivo | 70 | 128 | 1.25 × 10^5 ± 1.04 × 10^5 Luminescence arbitrary units | 2.56 × 10^4 Luminescence arbitrary units and 6.93 × 10^3 Luminescence arbitrary units
